The test addresses T1, oestrogen receptor (ER) (Homo sapiens, UniProt P03372).
T1 construct: These MVLN cells express, along with the functional oestrogen receptor (ER), a reporter construct; endogenous in cells; host or cells: MVLN cells (MCF7 derivative with ER-responsive luciferase reporter)
T1 sequence (P03372 1-595): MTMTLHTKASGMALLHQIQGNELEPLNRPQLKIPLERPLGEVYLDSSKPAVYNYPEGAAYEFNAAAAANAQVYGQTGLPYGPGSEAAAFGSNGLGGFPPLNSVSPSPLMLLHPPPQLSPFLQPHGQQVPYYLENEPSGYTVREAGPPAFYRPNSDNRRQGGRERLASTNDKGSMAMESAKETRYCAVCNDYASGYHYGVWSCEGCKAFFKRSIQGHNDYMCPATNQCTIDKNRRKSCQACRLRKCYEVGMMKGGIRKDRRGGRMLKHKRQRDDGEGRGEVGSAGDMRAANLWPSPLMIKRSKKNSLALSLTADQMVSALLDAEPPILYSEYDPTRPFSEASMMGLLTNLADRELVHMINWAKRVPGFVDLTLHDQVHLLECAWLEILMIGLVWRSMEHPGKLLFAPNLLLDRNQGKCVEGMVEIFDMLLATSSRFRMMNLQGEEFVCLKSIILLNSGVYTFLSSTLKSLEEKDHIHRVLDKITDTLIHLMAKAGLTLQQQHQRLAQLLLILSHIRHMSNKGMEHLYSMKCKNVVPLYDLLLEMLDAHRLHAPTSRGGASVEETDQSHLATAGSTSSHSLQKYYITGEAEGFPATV
The test can be described thus: Anti-oestrogenic action in MVLN cells (inhibition of estradiol-induced luciferase, transactivation antagonism). The class given is cell-based. Particulars: inhibition of estradiol-induced luciferase activity, read-out: Anti-oestrogenic action in vitro: MVLN transactivation antagonism IC50. From the text: The anti-oestrogenic action of the claimed pharmacological compounds was investigated in so-called MVLN cells in vitro. MVLN cells are derivatives of the hormone-responsive MCF7 breast cancer cells known by a person skilled in the art. These MVLN cells express, along with the functional oestrogen receptor (ER), a reporter construct, which under ER-activation expresses luciferase. Determination of the activity of the induced luciferase permits a direct conclusion on the oestrogen properties of substances. To investigate the anti-oestrogenic properties of the pharmacological compounds, they were investigated in the presence of oestrogen for their potential for inhibiting the luciferase signal induced by estradiol.
The claimed pharmacological test substances were investigated in MVLN cells for their anti-oestrogenic potential, as described (see Table 2).

IC50 data for 19 compounds are collected here from patent publication US20150080438A1, “6,7-Dihydro-5H-benzo[7]annulene derivatives, processes for their preparation, pharmaceutical products comprising them and their use for preparing medicaments” (Bayer Intellectual Property GmbH, priority 2011, published 2015).

As to `CN(CCCCCC1=C(c2cccc(O)c2)CCCc2cc(O)ccc21)CCC[S+]([O-])CCCC(F)(F)C(F)(F)F` (racemic) [Example 4, 8-(3-Hydroxyphenyl)-9-[5-(methyl{3-[(RS)-(4,4,5,5,5-pentafluoropentyl)sulphinyl]propyl}amino)pentyl]-6,7-dihydro-5H-benzo[7]annulen-3-ol], the IC50 stood at 3 nM.
`CN(CCCCCC1=C(c2cccc(O)c2)CCCc2cc(O)ccc21)CCCCC[S+]([O-])CCCC(F)(F)C(F)(F)F` (racemic) [Example 8, 8-(3-Hydroxyphenyl)-9-[5-(methyl{5-[(RS)-(4,4,5,5,5-pentafluoropentyl)sulphinyl]pentyl}amino)pentyl]-6,7-dihydro-5H-benzo[7]annulen-3-ol]: the IC50 turned out to be 8 nM.
The figure for `CN(CCCCCC[S+]([O-])CCCC(F)(F)C(F)(F)F)CCCCCC1=C(c2cccc(O)c2)CCCc2cc(O)ccc21` (racemic) [Example 10, 8-(3-Hydroxyphenyl)-9-[5-(methyl{6-[(RS)-(4,4,5,5,5-pentafluoropentyl)sulphinyl]hexyl}amino)pentyl]-6,7-dihydro-5H-benzo[7]annulen-3-ol] is 2 nM; for `CN(CCCCCCC1=C(c2cccc(O)c2)CCCc2cc(O)ccc21)CCC[S+]([O-])CCCC(F)(F)C(F)(F)F` (racemic) [Example 12, 8-(3-Hydroxyphenyl)-9-[6-(methyl{3-[(RS)-(4,4,5,5,5-pentafluoropentyl)sulphinyl]propyl}amino)hexyl]-6,7-dihydro-5H-benzo[7]annulen-3-ol] it is 2 nM.
The figure for `CN(CCCCCCC1=C(c2cccc(O)c2)CCCc2cc(O)ccc21)CCCC[S+]([O-])CCCC(F)(F)C(F)(F)F` (racemic) [Example 14, 8-(3-Hydroxyphenyl)-9-[6-(methyl{4-[(RS)-(4,4,5,5,5-pentafluoropentyl)sulphinyl]butyl}amino)hexyl]-6,7-dihydro-5H-benzo[7]annulen-3-ol] is 2 nM; for `CN(CCCCCCC1=C(c2cccc(O)c2)CCCc2cc(O)ccc21)CCCCC[S+]([O-])CCCC(F)(F)C(F)(F)F` (racemic) [Example 16, 8-(3-Hydroxyphenyl)-9-[6-(methyl{5-[(RS)-(4,4,5,5,5-pentafluoropentyl)sulphinyl]pentyl}amino)hexyl]-6,7-dihydro-5H-benzo[7]annulen-3-ol] it is 2 nM.
For `CN(CCCCCCC1=C(c2cccc(O)c2)CCCc2cc(O)ccc21)CCCCCC[S+]([O-])CCCC(F)(F)C(F)(F)F` (racemic) [Example 18, 8-(3-Hydroxyphenyl)-9-[6-(methyl{6-[(RS)-(4,4,5,5,5-pentafluoropentyl)sulphinyl]hexyl}amino)hexyl]-6,7-dihydro-5H-benzo[7]annulen-3-ol] the value was 2 nM.
Regarding `CN(CCCCCCC1=C(c2ccc(O)cc2)CCCc2cc(O)ccc21)CCC[S+]([O-])CCCC(F)(F)C(F)(F)F` (racemic) [Example 26, 8-(4-Hydroxyphenyl)-9-[6-(methyl{3-[(RS)-(4,4,5,5,5-pentafluoropentyl)sulphinyl]propyl}amino)hexyl]-6,7-dihydro-5H-benzo[7]annulen-3-ol], the IC50 is 1 nM.
The figure for `CN(CCCCCCC1=C(c2ccc(F)c(O)c2)CCCc2cc(O)ccc21)CCCC[S+]([O-])CCCC(F)(F)C(F)(F)F` (racemic) [Example 30, 8-(4-Fluoro-3-hydroxyphenyl)-9-[6-(methyl{4-[(RS)-(4,4,5,5,5-pentafluoropentyl)sulphinyl]butyl}amino)hexyl]-6,7-dihydro-5H-benzo[7]annulen-3-ol] is 2 nM; for `CN(CCCCCCC1=C(c2ccc(F)c(O)c2)CCCc2cc(O)ccc21)CCCCC[S+]([O-])CCCC(F)(F)C(F)(F)F` (racemic) [Example 32, 8-(4-Fluoro-3-hydroxyphenyl)-9-[6-(methyl{5-[(RS)-(4,4,5,5,5-pentafluoropentyl)sulphinyl]pentyl}amino)hexyl]-6,7-dihydro-5H-benzo[7]annulen-3-ol] it is 3 nM.
In the case of `CN(CCCCCCC1=C(c2ccc(F)c(O)c2)CCCc2cc(O)ccc21)CCCCCC[S+]([O-])CCCC(F)(F)C(F)(F)F` (racemic) [Example 34, 8-(4-Fluoro-3-hydroxyphenyl)-9-[6-(methyl{6-[(RS)-(4,4,5,5,5-pentafluoropentyl)sulphinyl]hexyl}amino)hexyl]-6,7-dihydro-5H-benzo[7]annulen-3-ol], the IC50 is 5 nM.
The figure for `CN(CCCCCC1=C(c2cccnc2)CCCc2cc(O)ccc21)CCC[S+]([O-])CCCC(F)(F)C(F)(F)F` (racemic) [Example 40, 9-[5-(Methyl{3-[(RS)-(4,4,5,5,5-pentafluoropentyl)sulphinyl]propyl}amino)pentyl]-8-(3-pyridyl)-6,7-dihydro-5H-benzo[7]annulen-3-ol] is 27 nM; for `CN(CCCCCCC1=C(c2cccnc2)CCCc2cc(O)ccc21)CCC[S+]([O-])CCCC(F)(F)C(F)(F)F` (racemic) [Example 43, 9-[6-(Methyl{3-[(RS)-(4,4,5,5,5-pentafluoropentyl)sulphinyl]propyl}amino)hexyl]-8-(3-pyridyl)-6,7-dihydro-5H-benzo[7]annulen-3-ol] it is 8 nM; for `[O-][S+](CCCNCCCCCC1=C(c2ccccc2)CCCc2cc(O)ccc21)CCCC(F)(F)C(F)(F)F` (racemic) [Example 50, 9-[5-({3-[(RS)-(4,4,5,5,5-Pentafluoropentyl)sulphinyl]propyl}amino)pentyl]-8-phenyl-6,7-dihydro-5H-benzo[7]annulen-3-ol] it is 7 nM.
For `CN(CCCCCCC1=C(c2cccc(O)c2)CCCc2cc(O)ccc21)CCC[S+]([O-])CCC(F)(F)F` (racemic) [Example 55, 8-(3-Hydroxyphenyl)-9-[6-(methyl{3-[(RS)-(3,3,3-trifluoropropyl)sulphinyl]propyl}amino)hexyl]-6,7-dihydro-5H-benzo[7]annulen-3-ol] the value was 2 nM.
For `CN(CCCCCCC1=C(c2ccccc2)CCCc2cc(O)ccc21)CCC[S+]([O-])CCC(F)(F)F` (racemic) [Example 59, 9-[6-(Methyl{3-[(RS)-(3,3,3-trifluoropropyl)sulphinyl]propyl}amino)hexyl]-8-phenyl-6,7-dihydro-5H-benzo[7]annulen-3-ol] the value was 10 nM; for `CN(CCCCCCC1=C(c2ccccc2)CCCc2cc(O)ccc21)CCC[S+]([O-])CCC(F)(F)C(F)(F)F` (racemic) [Example 61, 9-[6-(Methyl{3-[(RS)-(3,3,4,4,4-pentafluorobutyl)sulphinyl]propyl}amino)hexyl]-8-phenyl-6,7-dihydro-5H-benzo[7]annulen-3-ol], 9 nM; for `CN(CCCCCCC1=C(c2ccccc2)CCCc2cc(O)ccc21)CCCC[S+]([O-])CCCC(F)(F)C(F)(F)F` (racemic) [Example 66, 9-[6-(Methyl{4-[(RS)-(4,4,5,5,5-pentafluoropentyl)sulphinyl]butyl}amino)hexyl]-8-phenyl-6,7-dihydro-5H-benzo[7]annulen-3-ol], 5 nM.
For `CCN(CCCCCCC1=C(c2ccccc2)CCCc2cc(O)ccc21)CCC[S+]([O-])CCCC(F)(F)C(F)(F)F` (racemic) [Example 68, 9-[6-(Ethyl{3-[(RS)-(4,4,5,5,5-pentafluoropentyl)sulphinyl]propyl}amino)hexyl]-8-phenyl-6,7-dihydro-5H-benzo[7]annulen-3-ol], the IC50 was 5 nM.
